Where two headings read alike, the source gives them in different places.
Tests used:
[1] = system: phosphorylation of Rb at Thr821 in SKUT-1B cells; assay: Inhibition of Rb phosphorylation in cells (western blot); type: cell-based; conditions: Homo sapiens, Skut1B, 1 hr exposure
Protocol: The cellular potency of NU6300 was examined by measuring the inhibition of Rb phosphorylation following exposure of SKUT-1B cells to the inhibitor for 1 hr. Pre-incubation with 50 μM NU6300 inhibited phosphorylation of Rb at […], a known CDK2 phosphorylation site, by 43%. […] This difference just reached statistical significance (p = 0.04). […] Representative of three different experiments. […] Protein expression levels of phospho-Rb ([…]) were normalized to the levels of total Rb in respective samples using densitometry. Relative protein expression levels are presented as percentage of inhibition of phosphorylation of Rb ([…]) compared with the control cells for each time point. Error bars represent the mean value and SD from three independent experiments. Statistical analysis was performed using the unpaired Student's t test, one-tailed. Western blot analysis was carried out as described previously ([Thomas et al., 2011]) using rabbit anti-[…] phospho-Rb antibody (Invitrogen) or mouse antihuman Rb antibody (BD Pharmingen) to detect phosphorylated and total retinoblastoma protein, respectively. Sample preparation is described in Supplemental Experimental Procedures. page 14: formate) before cryo-coolling. Data processing was carried out using programs of the CCP4 suite (CCP4, 1994). The structure of NU6300 bound to CDK2/cyclin A was solved by molecular replacement using Phaser (McCoy et al., 2007), using as the search model a high-resolution structure of a recruitment peptide bound to CDK2/cyclin A ((Cheng et al., 2006) PDB code 2CCH). A single clear solution was found with an inhibitor bound to each of the two copies of the binary complex in the asymmetric unit. This solution was then subjected to rigid body refinement in REFMAC (Murshudov et al., 1997), to reveal unambiguous electron density in the CDK2 ATP-binding site, consistent with the expected shape of the inhibitor. A model of NU6300 was created using Coot (Emsley et al., 2010). The inhibitor atoms were kept in all subsequent models during refinement carried out by additional rounds of manual rebuilding in Coot and restrained refinement in REFMAC5, including TLS refinement. Towards the end of refinement, waters were added using the Coot water picking utility and manually verified. Western blotting SKUT-1B cells (ATCC, Manassas, USA) were grown in MEM medium supplemented with non-essential amino acids, L-Glutamine, sodium pyruvate and 10% (v/v) foetal calf serum (Sigma, UK). […] Cells were harvested at different time points after the washout and lysed by adding PhosphoSafe extraction reagent (Merck, UK) containing protease inhibitor cocktail (Roche, UK) at the manufacturer's recommended dilution. The harvested cell suspension was placed in an eppendorf tube on ice, centrifuged at 13,000x g for 5 min, and the supernatant (cell lysate) removed for analysis. Subsequent western blot analysis was carried out as described in (Thomas et al., 2011) using rabbit anti-[…] phospho-Rb antibody (Invitrogen, Paisley, UK Cat No. 44-[…]) or mouse anti-human Rb antibody (BD Pharmingen, Oxford, UK Cat No. 554136) to detect phosphorylated and total retinoblastoma protein, respectively.

ABL = ABL (Homo sapiens, UniProt P00519); assay: Dundee protein kinase screen; type: biochemical; conditions: read-out: %Remaining activity at 1µM NU6300
Protocol: (§1) Prior to determining its cellular activity, we carried out a screen to assess its selectivity against a panel of 131 protein kinases under conditions that would not distinguish between a reversible or irreversible mode of action. […] These 13 kinases and 29 additional kinases, selected for their known sensitivity to other inhibitors within the purine series, were then tested in a modified screening format in which the assay was repeated following a 4-hr pre-incubation (Table S3B). […] However, conformational flexibility around the active site may promote such an interaction with a residue from another part of the structure ([Martin et al., 2012]).
(§2) Table S3, Related to Figure 4. NCL-0006300 protein kinase selectivity. (A) NU6300 was tested at a single concentration of 1µM against 131 protein kinases present in a Dundee protein kinase screen (Bain et al., 2007). Values given are % activity remaining and are the average of duplicate measurements: 0-25% (red), 26-50% (yellow), 51-80% (black) and above 81% (green). The kinase domain sequences (as defined by UniProt) of […]
(§3) have a lysine residue at a position close to CDK2 Lys88 or Lys89. However, in the structure of tyrosine-protein kinase BTK (PDB ID: 3GEN) the residue equivalent to CDK2 Asp86 is Cys481 and therefore there is the potential for a covalent adduct to be formed through this side chain. […]

CAMK1 = CAMK1 (Homo sapiens, UniProt Q14012); assay: Dundee protein kinase screen; type: biochemical; conditions: CAMK1, 1µM; read-out: %Remaining activity at 1µM NU6300
Protocol: as §1, §2, §3

CDK2-Cyclin A = CDK2-Cyclin A (Homo sapiens, UniProt P24941); assay: Dundee protein kinase screen; type: biochemical; conditions: read-out: %Remaining activity at 1µM NU6300
Protocol: as §1, §2, §3

ERK2 = ERK2 (Homo sapiens, UniProt P28482); assay: Dundee protein kinase screen; type: biochemical; conditions: ERK2, 1µM; read-out: %Remaining activity at 1µM NU6300
Protocol: as §1, §2, §3

IRR = IRR (Homo sapiens, UniProt P14616); assay: Dundee protein kinase screen; type: biochemical; conditions: read-out: %Remaining activity at 1µM NU6300
Protocol: as §1, §2, §3

MELK = MELK (Homo sapiens, UniProt Q14680); assay: Dundee protein kinase screen; type: biochemical; conditions: read-out: %Remaining activity at 1µM NU6300
Protocol: as §1, §2, §3

MKK1 = MKK1 (Homo sapiens, UniProt Q02750); assay: Dundee protein kinase screen; type: biochemical; conditions: MKK1, 1µM; read-out: %Remaining activity at 1µM NU6300
Protocol: as §1, §2, §3

Sequence of ABL (P00519 whole entry): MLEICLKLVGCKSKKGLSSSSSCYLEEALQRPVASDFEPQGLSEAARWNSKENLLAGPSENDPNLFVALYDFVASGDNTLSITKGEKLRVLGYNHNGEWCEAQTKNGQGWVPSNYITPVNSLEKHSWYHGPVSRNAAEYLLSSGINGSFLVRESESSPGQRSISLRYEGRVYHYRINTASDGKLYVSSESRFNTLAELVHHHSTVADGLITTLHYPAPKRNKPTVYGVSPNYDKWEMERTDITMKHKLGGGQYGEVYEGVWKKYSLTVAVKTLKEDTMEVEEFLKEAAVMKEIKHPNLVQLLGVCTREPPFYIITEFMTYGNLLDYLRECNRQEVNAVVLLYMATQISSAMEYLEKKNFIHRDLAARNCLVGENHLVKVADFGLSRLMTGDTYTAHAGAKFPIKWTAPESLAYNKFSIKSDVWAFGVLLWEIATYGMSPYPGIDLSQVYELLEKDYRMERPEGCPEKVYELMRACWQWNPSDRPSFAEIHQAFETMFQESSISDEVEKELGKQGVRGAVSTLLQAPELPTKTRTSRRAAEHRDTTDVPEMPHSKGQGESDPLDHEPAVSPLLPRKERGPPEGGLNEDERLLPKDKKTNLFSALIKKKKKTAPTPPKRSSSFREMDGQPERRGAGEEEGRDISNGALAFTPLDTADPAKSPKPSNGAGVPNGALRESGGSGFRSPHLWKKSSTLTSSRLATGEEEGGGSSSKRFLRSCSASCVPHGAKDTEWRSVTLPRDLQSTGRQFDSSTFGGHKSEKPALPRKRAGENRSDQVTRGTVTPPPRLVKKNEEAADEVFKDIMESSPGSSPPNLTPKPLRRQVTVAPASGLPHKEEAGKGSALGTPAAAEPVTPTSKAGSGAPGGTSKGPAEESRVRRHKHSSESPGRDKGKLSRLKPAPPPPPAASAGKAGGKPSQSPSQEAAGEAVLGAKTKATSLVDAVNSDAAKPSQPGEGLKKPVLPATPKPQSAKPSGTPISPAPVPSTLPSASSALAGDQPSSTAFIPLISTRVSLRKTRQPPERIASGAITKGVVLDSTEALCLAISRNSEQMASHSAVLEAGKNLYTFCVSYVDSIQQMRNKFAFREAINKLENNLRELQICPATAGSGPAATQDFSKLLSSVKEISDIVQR
Sequence of MELK (Q14680 whole entry): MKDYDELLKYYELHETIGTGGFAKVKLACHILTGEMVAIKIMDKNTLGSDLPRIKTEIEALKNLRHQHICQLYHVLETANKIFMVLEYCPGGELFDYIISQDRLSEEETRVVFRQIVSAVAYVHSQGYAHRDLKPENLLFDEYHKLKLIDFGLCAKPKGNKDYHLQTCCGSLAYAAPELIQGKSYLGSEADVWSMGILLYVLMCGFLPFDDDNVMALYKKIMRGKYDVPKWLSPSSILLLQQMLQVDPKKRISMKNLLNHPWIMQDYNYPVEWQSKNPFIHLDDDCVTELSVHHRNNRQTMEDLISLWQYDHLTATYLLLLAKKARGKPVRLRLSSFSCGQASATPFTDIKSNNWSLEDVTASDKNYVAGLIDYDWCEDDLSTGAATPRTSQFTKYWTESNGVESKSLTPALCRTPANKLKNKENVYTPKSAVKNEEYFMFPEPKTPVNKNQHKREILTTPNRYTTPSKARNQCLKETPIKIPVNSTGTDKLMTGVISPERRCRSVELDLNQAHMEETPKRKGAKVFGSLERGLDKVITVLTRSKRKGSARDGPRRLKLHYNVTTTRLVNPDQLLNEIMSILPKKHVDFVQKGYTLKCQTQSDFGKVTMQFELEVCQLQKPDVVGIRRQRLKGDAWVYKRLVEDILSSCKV
Sequence of MKK1 (Q02750 whole entry): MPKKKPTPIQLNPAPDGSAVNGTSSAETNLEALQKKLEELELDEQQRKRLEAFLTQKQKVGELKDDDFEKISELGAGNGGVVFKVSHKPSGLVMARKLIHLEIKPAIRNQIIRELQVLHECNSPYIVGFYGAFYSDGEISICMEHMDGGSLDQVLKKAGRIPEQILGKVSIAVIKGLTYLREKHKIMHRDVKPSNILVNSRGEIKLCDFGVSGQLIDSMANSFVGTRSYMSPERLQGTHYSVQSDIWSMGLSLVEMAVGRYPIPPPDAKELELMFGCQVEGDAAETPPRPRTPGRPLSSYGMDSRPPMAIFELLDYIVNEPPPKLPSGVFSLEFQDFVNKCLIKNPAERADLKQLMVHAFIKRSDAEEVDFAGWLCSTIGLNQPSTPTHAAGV
Sequence of IRR (P14616 27-1297): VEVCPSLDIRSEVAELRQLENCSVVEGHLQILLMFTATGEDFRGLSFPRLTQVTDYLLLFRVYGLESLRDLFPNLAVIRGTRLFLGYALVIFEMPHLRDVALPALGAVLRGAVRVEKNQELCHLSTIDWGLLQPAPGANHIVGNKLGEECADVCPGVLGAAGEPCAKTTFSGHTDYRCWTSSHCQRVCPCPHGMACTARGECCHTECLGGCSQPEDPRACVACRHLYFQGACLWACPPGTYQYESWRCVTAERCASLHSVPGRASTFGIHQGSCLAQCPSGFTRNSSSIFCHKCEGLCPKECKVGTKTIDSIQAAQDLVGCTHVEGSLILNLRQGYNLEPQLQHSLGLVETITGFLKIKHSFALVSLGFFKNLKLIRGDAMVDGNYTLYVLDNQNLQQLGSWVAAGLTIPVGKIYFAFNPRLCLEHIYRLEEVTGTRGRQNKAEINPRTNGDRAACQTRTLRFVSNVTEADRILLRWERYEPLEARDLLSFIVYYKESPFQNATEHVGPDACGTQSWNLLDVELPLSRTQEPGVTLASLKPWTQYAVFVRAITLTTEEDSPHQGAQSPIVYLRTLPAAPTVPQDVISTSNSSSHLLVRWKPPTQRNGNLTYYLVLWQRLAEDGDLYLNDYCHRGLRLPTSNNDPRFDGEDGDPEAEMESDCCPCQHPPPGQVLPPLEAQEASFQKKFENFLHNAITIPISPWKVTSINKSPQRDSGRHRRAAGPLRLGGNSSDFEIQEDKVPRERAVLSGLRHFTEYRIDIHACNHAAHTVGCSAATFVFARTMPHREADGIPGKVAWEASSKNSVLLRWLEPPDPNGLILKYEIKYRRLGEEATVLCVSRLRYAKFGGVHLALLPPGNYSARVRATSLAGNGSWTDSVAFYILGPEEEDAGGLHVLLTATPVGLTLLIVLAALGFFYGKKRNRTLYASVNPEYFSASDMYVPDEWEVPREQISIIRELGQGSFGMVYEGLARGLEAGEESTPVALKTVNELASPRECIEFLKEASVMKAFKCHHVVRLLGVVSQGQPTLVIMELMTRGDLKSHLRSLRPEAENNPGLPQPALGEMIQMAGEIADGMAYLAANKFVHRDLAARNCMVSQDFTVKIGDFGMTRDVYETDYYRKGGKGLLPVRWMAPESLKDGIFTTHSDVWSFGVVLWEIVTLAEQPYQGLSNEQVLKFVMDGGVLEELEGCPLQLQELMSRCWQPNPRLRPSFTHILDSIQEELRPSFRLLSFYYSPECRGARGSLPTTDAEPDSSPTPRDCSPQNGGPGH
Sequence of ERK2 (P28482 whole entry): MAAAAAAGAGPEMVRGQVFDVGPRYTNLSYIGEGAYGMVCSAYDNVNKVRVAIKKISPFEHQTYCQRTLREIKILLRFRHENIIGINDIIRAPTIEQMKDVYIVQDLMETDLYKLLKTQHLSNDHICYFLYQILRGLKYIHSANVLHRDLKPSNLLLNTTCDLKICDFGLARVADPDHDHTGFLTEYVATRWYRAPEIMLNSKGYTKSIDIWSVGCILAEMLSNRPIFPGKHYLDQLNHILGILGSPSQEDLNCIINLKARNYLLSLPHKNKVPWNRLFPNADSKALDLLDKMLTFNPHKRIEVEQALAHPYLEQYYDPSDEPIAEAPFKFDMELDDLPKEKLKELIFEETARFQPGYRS

C=CS(=O)(=O)c1ccc(Nc2nc(OCC3CCCCC3)c3nc[nH]c3n2)cc1 [NU6300, 6-(cyclohexylmethoxy)-N-(4-(vinylsulfonyl)phenyl)-9H-purin-2-amine] showed an inhibition at 50 µM ([1]; before washout, read-out: inhibition of phosphorylation of Rb at Thr821) of 43%, an inhibition at 50 µM ([1]; then 1-hr washout in drug-free media, read-out: inhibition of phosphorylation of Rb at Thr821 after washout) of 33% and a remaining activity at 1 µM (ABL) of 56%. It also gave a remaining activity at 1 µM (CAMK1) of 89%, a remaining activity at 1 µM (CDK2-Cyclin A) of 27% and a remaining activity at 1 µM (ERK2) of 73%. For the same compound, the remaining activity at 1 µM (IRR) was 32%, the remaining activity at 1 µM (MELK) was 55% and the remaining activity at 1 µM (MKK1) was 58%.

Source: paper PMC4579270, “Identification and Characterization of an Irreversible Inhibitor of CDK2” (Chemistry & Biology, 2015)
